Data: US8815935B2, “Inhibitors of protein prenyltransferases” (The Regents of the University of California, priority 2008, dated 2014)

What was measured:
[1] = biological target: GGTase I (K-Ras4B as substrate) (Homo sapiens, UniProt P49354+P53609); experiment: GGTase I filter-binding assay, K-Ras4B as substrate (library screens); format: biochemical; details: compound 50 μM; DMSO = 100%; smaller = better inhibition; 50 µM
Procedure: (§1) The pilot library was screened for inhibitors of protein geranylgeranyltransferase type I. Protein prenyltransferase assays were carried out by using filter binding. Two different substrates, RhoA and K-Ras4B, were used for the assay. RhoA ends with the CaaL motif and is an exclusive substrate for GGTase I, while K-Ras4B ends with the CaaX motif and is modified by both GGTase I and FTase.
(§2) In the assay, a fixed concentration of 100 μM was used and the results are plotted for the inhibition of RhoA (vertical axis) as well as for K-Ras4B (horizontal axis). […] They are 2,6-diaryl-N-tosyl-1,2,5,6-tetrahydropyridine-3-carboxylic acids, except P2-D5 that is missing an aryl substituent at C2.
The % activity of GGTase I was determined as follows: a working solution that contained each compound in DMSO at the concentration of 1 mM was prepared. The working solution was added to GGTase I reaction mixture so that the final concentration of the compound is 50 μM. GGTase I activity was assayed by incubating [^3H]GGPP with K-Ras4B or RhoA protein in the presence of GGTase I and examining radioactivity incorporated into the substrate protein by spotting onto a filter paper. After washing with TCA, ethanol and acetone, the radioactivity retained on the filter was determined by the use of a scintillation counter. GGTase I activity in the presence of DMSO was taken as a 100% value and the activity in the presence of the compound was shown as percent activity compared with the 100% value. […] For 6-aryl-4-mercapto-N-sulfonyl-piperidine-3-carboxylic acid 11 the 4-mercapto substituent appeared critical to endowing GGTase inhibitory activity. […] 4-Chlorobenzylthio substituent was the next best; 12 compounds out of 21 containing the 4-chlorobenzylthio moiety were active. 4-Benzylthio substituent was also good; 7 piperidines out of 21 bearing 4-benzylthio group were active. […] 19 imines (C15>C12=C41>C40>C01=C11>C05=C10=C30=C35=C37=C38>C02, C03, C04, C06, C39=C43) out of 21 appeared in the GGTIs. […] This corresponds to 47 6-aryl-4-mercapto-N-sulfonyl-piperidine-3-carboxylic acids out of 357 compounds.
A collection of 138 heterocycles was screened for their ability to inhibit the activity of human GGTase-I to geranylgeranylate K-Ras4B or RhoA. Purified GGTase-I was incubated with its substrate protein K-Ras4B or RhoA, [^3H]GGPP, and the 138 compounds. After 30 min, the degree of incorporation of tritiated geranylgeranyl groups was measured using a scintillation counter.

[2] = biological target: GGTase I (RhoA as substrate) (Homo sapiens, UniProt P49354+P53609); experiment: GGTase I filter-binding assay, RhoA as substrate (library screens); format: biochemical; details: compound 50 μM, DMSO = 100%, smaller = better inhibition
Procedure: as §1, §2
The % activity of GGTase I was determined as follows: a working solution that contained each compound in DMSO at the concentration of 1 mM was prepared. The working solution was added to GGTase I reaction mixture so that the final concentration of the compound is 50 μM. GGTase I activity was assayed by incubating [^3H]GGPP with K-Ras4B or RhoA protein in the presence of GGTase I and examining radioactivity incorporated into the substrate protein by spotting onto a filter paper. After washing with TCA, ethanol and acetone, the radioactivity retained on the filter was determined by the use of a scintillation counter. GGTase I activity in the presence of DMSO was taken as a 100% value and the activity in the presence of the compound was shown as percent activity compared with the 100% value. […] For 6-aryl-4-mercapto-N-sulfonyl-piperidine-3-carboxylic acid 11 the 4-mercapto substituent appeared critical to endowing GGTase inhibitory activity. […] 4-Chlorobenzylthio substituent was the next best; 12 compounds out of 21 containing the 4-chlorobenzylthio moiety were active. […]
A collection of 138 heterocycles was screened for their ability to inhibit the activity of human GGTase-I to geranylgeranylate K-Ras4B or RhoA. […] After 30 min, the degree of incorporation of tritiated geranylgeranyl groups was measured using a scintillation counter.

Compound	% activity of GGTase I for K-Ras4B in the presence of the compound [1] [%]	% activity of GGTase I for RhoA in the presence of the compound [2] [%]
Cc1ccccc1S(=O)(=O)N1C(c2ccc(Cl)cc2)CC=C(C(=O)O)[C@@H]1c1ccccc1 (stereo partly drawn) [drawing 33]	10.6	8.8
Cc1ccccc1S(=O)(=O)N1C(c2ccc(Cl)cc2)CC=C(C(=O)O)[C@@H]1c1ccccc1 (stereo partly drawn) [drawing 39]	15.6	12.4
Cc1ccccc1S(=O)(=O)N1C(c2ccc(Cl)cc2)CC=C(C(=O)O)[C@@H]1c1ccccc1 (stereo partly drawn) [drawing 42]	5.4	3.0
